According to patent publication US20250090562A1, “METHODS, COMPOSITIONS AND USES RELATED TO THE TREATMENT AND PREVENTION OF LEIGH’S SYNDROME” (Stealth BioTherapeutics Inc., priority 2023, published 2025):

Legend:
Assay type in all cases: cell-based, human
[1] = test system: rotenone-inhibited Complex I; test: Complex I-bypass assay ((CI)-bypass assay), high-resolution respirometry O2 consumption; settings: Leigh (GM03672) fibroblasts, 0.5 μM rotenone, oxygen consumption rate; read-out: EC50 value, Complex I by-pass activity
Experimental: All high-resolution respirometry experiments were conducted using the Oroboros O2k-Fluorespirometer (Oroboros, Innsbruck, Austria). The Oroboros O2k-Fluorespirometer was calibrated daily using the air calibration protocol on DatLab 7.4 (Oroboros, Innsbruck, Austria). Prior to each experiment requiring the fluorescence module, the AmpR calibration protocol from DatLab 7.4 was used to calibrate the fluorescence signal. Initial data analysis, including setting of marks, was performed using DatLab 7.4.
Complex I-bypass activity was assessed using HRR to measure O2 consumption. Briefly, Leigh (GM03672) fibroblasts were harvested with trypsin, pelleted at 300×g centrifugation, and resuspended in prewarmed, complete MEM. Cells were added to each chamber via buffer replacement at a concentration of 1-2 million per mL. The chambers were closed to initiate measurement of O2 consumption. The slope negative signal, which is a derivative of O2 consumption, was allowed to stabilize over the course of several minutes. Using a Hamilton syringe to allow for continuous measurement of O2 consumption, glutamate (10 mM final concentration) and malate (0.1 mM final concentration) were added to the closed chamber through the central capillary of the stopper. The slope negative signal was stabilized for several minutes, and rotenone was added at a final concentration of 0.5 μM. One of Compounds 1 to 4 or Vatiquinone was added at increasing concentrations, allowing for several minutes of stabilization of the slope negative signal between titrations. Marks were set at signal plateaus in between titrations. Values were exported and analyzed using GraphPad Prism 9. […] Responsiveness of cells was confirmed with idebenone.
Statistical analysis was performed using GraphPad Prism 9. Complex I-bypass data were fit using nonlinear sigmoidal 4P fit. RET Assay data were analyzed by 2-way ANOVA using a p-value of 0.05.
The Complex 1-bypass assay ((CI)-bypass Assay) evaluates the capacity of compounds to donate electrons into the electron transport chain (ETC) when Complex I is impaired or otherwise deficient. Normally, electrons feed into the ETC through Complex I. In instances where Complex I is impaired, electrons must enter the ETC downstream of Complex I for oxidative phosphorylation (OXPHOS) to occur. Complex I is composed of 46 subunits, encoded by mitochondrial and nuclear genes. Due to its large size, Complex I mutations are a common cause of ETC dysfunction in mitochondrial diseases. Indeed, mutations in the genes that encode subunits for Complex I are important causes of Leigh and Leigh-like syndrome.
Using this assay, the ability of Compounds 1 to 4 and Vatiquinone to bypass rotenone-inhibited Complex I was determined. Rotenone is a widely used Complex I inhibitor and blocks the transfer of electrons from the iron-sulfur complexes on Complex I to ubiquinone. Thus, when rotenone is introduced to cells underdoing routine respiration, a decrease in oxygen consumption is observed, which is indicative of disrupted OXPHOS. The ability of Compounds 1 to 4 and Vatiquinone to “bypass” Complex I and restore OXPHOS is measured by an increase in oxygen consumption rate following addition of the compound to the chamber.
In executing this assay, in each instance, fibroblasts are added to each chamber of the Oroboros Oxygraph-2K (the “O2k”). The O2k generates two traces: 1) total oxygen consumption over time, 2) the rate of oxygen consumption over time (slope negative). Baseline respiration is established for several minutes by allowing the slope negative to stabilize. Rotenone is introduced to each chamber at a final concentration of 0.5 μM. The addition of rotenone is expected to cause a marked reduction of OXPHOS as measured by a decreased rate of oxygen consumption. Then the test article (i.e., in this case one of Compounds 1 to 4 or Vatiquinone) is added to the chamber. […]

[2] = test system: Healthy (GM08402) fibroblasts; test: RSL3 cytoprotection assay, healthy fibroblasts; settings: 1 μM RSL3, 10-1000 nM compound, 4 h
Experimental: (§1) Patient fibroblasts were acquired from Coriell Institute for Medical Research (Camden, NJ, USA). GM03672 is an untransformed fibroblast cell line from a Leigh syndrome patient carrying an unknown mutation. GM08402 is an untransformed fibroblast from an apparently healthy individual. Cells were cultured at 37° C. at 5% CO2 in Eagle's Minimum Essential Medium (MEM, Corning), which was supplemented with Earle's salts and non-essential amino acids, 15% qualified fetal bovine serum, and 1% penicillin/streptomycin ([…]) to yield “Complete MEM.”
(§2) To initiate the RSL3 cytoprotection experiment, Healthy (GM08402) and Leigh syndrome (GM03672) fibroblasts were resuspended in Complete MEM. Cells were seeded at 10,000 cells per well in a clear, tissue cultured-treated, 96-well plate and incubated at 37° C. overnight. Following the incubation, supernatant was manually aspirated, taking care not to disrupt cells. […]. Luminescence units were quantified by GEN5 software on a BioTek SYNERGY neo2 plate reader (LUM filter).
(§3) RSL3 is an inhibitor of the enzyme glutathione peroxidase 4 (GPX4), which decreases lipid peroxides. RSL3 inhibition of GPX4 induces ferroptosis through iron-dependent accumulation of lipid ROS. In this assay, Healthy or Leigh fibroblasts were treated for 4 hours with RSL3 to induce ferroptosis or left untreated. Endogenous ATP levels were measured as an indicator of cellular viability using a commercially available kit (CellTiter-Glo® 2.0 Cell Viability Assay (Promega)).
(§4) […]. […] Briefly, ferroptosis was induced with 1 μM RSL3 in healthy fibroblast cells and 375 nM RSL3 in fibroblasts from a patient with Leigh syndrome.
(§5) A preliminary experiment was performed to determine the effect of RSL3 injury on the fibroblasts of a healthy individual (cell line: GM08402) and the fibroblasts of a patient diagnosed with Leigh syndrome (cell line: GM03672).

[3] = test system: Leigh syndrome (GM03672) fibroblasts; test: RSL3 cytoprotection assay, Leigh fibroblasts; settings: 375 nM RSL3, 10-1000 nM compound, 4 h
Experimental: as §1, §2, §3, §4, §5

15-lipoxygenase (15-LO) = test: 15(S)-HETE ELISA following RSL3 treatment, Leigh fibroblasts; settings: 700 nM RSL3, 1 μM compound, 24 h
Experimental: Samples for the 15(S)-HETE ELISA were generated by the RSL3 cytoprotection assay described above. Healthy or Leigh fibroblasts were resuspended in assay medium, seeded at 200,000 cells per well in a clear, tissue culture-treated, 24-well plate. Cells were incubated at 37° C. for 24 hours. Supernatant was aspirated from each well following the incubation.
Fibroblasts from both a healthy individual and a patient diagnosed with Leigh syndrome were examined (but not all compounds were examined in each cell type). Activation of ferroptosis has been implicated as a driver of epilepsy, which is commonly associated with Leigh syndrome. […] Kahn-Kirby et al. PLOS One. […] As a key regulator of ferroptosis, 15-LO serves as a rational therapeutic target in Leigh syndrome.

SMILES: CC1=C(C)C(=O)C(CC[C@@](C)(O)CC/C=C(\C)CCC=C(F)F)=C(C)C1=O [Compound 2]
- EC50 [1]: ~4.09 µM
- relative anti-ferroptosis properties (comparison between test articles) [2]: superior to Compounds 1, 4 and Vatiquinone
- relative anti-ferroptosis properties (comparison between test articles) [3]: superior to Compounds 1, 4 and Vatiquinone
- relative 15-LO inhibition (comparison between test articles) (15-lipoxygenase (15-LO)): roughly equivalent protective effect

SMILES: CC1=C(C)C(=O)C(CC[C@@](C)(O)COCCC[Si](C)(C)C)=C(C)C1=O [Compound 3]
- EC50 [1]: ~3.41 µM
- relative anti-ferroptosis properties (comparison between test articles) [2]: superior to Compounds 1, 4 and Vatiquinone
- relative anti-ferroptosis properties (comparison between test articles) [3]: superior to Compounds 1, 4 and Vatiquinone
- relative 15-LO inhibition (comparison between test articles) (15-lipoxygenase (15-LO)): roughly equivalent protective effect

SMILES: CC1=C(C)C(=O)C(CC[C@](C)(O)CCCCCCCCC(F)(F)F)=C(C)C1=O [Compound 4]
- EC50 [1]: ~8.8 µM
- relative anti-ferroptosis properties (comparison between test articles) [2]: roughly equivalent in their anti-ferroptosis properties
- relative anti-ferroptosis properties (comparison between test articles) [3]: roughly equivalent in their anti-ferroptosis properties
- relative 15-LO inhibition (comparison between test articles) (15-lipoxygenase (15-LO)): roughly equivalent protective effect
